Measured values reported in patent US20070142396A1, “Treatment of pain with 1-[3-[4-(3-chlorophenyl)-1-piperazinyl]propyl]-5-methoxy-3,4-dihydro-2(1H)-quinolone or salt thereof” (Vela Pharmaceuticals, Inc., priority 2005, published 2007).

Key:
Type in all cases: in vivo, rat
[1] = system: rats with spinal nerve ligature (Chung neuropathic pain model); test: Chung spinal nerve ligation (L5 and L6) neuropathic pain model, thermal stimulation (Example 2); conditions: for change of paw-withdrawal latency vs vehicle: morphine 16 mg/kg i.p.
Description: (§1) The Chung neuropathic pain model (Kim and Chung, Pain, 50: 355-363, 1992), employs spinal nerve ligation (SNL) in a rat. Tight ligature of spinal nerves in a rat is associated with hyperalgesia, allodynia and spontaneous pain. Antihyperalgesics reduce these chronic signs of pain hypersensitivity. Thus, the Chung model permits testing of the antihyperalgesic activity of compounds in rats with neuropathic pain. The Chung model constitutes a model for peripheral neuropathic pain in humans, and was employed as follows.
(§2) Male Rj: Wistar (Han) rats, weighing 264-369 g at the beginning of the experiment, were obtained from Elevage Janvier, 53940 Le Genest-Saint-Isle, France. The rats were acclimatized to laboratory conditions for at least 5 days before the surgery phase of the experiment. The rats were housed in groups of five in macrolon cages (41×25×14 cm) on wood litter (Litalabo—SPPS, 95100 Argenteuil, France) with free access to food (code 113—SAFE, 91360 Epinay-sur-Orge, France) and water until tested. The animal houses were maintained under artificial lighting (12 hours) between 7:00 AM and 7:00 PM in a controlled ambient temperature of 21±3° C., and with relative humidity maintained at 40-70%.
(§3) Rats (264-369 g) were anesthetized with sodium pentobarbital (50 mg/kg i.p.), and an incision at the L4-S2 level was made to expose the left L5 and L6 spinal nerves. A ligature was tied tightly around each nerve. The wound was then sutured. The rats received an i.m. injection of 50,000 IU penicillin G and were allowed to recover. At least 2 weeks after the surgery, when the chronic state was fully installed, rats were submitted consecutively to tactile and thermal stimulation of both the non-lesioned and the lesioned hindpaws.
(§4) Doses of OPC-14523 were prepared in stock solutions (weight per volume, W/V), then in dilutions (volume per volume, V/V), as appropriate. The compound was dispersed in 0.5% tragacanth in distilled water. Morphine was dissolved in physiological saline as a reference standard for treatment of pain. The solutions for the test and reference substances were prepared fresh on the day of the experiment.
(§5) The vehicle, OPC-14523, and reference (morphine) compound were each administered in a volume of 5 ml/kg body weight. The doses of OPC-14523 were expressed in mg of substance per kg body weight and administered orally (p.o.). The vehicle control was also administered orally. The dose of morphine was expressed in mg of hydrochloride salt per kg body weight and administered i.p.
(§6) Each animal was tested at 30 minutes, 1 hour, 2 hours and 4 hours after the administration of a substance. Testing occurred in the morning.
(§7) To evaluate chronic drug administration and hypersensitivity induction, animals received a second substance treatment in the afternoon, after acute testing. The animals then received twice-daily substance treatment for an additional 9 days. To test for induction of hypersensitivity, the animals were tested, on the ninth day, 30 minutes before the first substance administration in the morning. The effect of chronic administration was tested on the tenth day 30 minutes, 1 hour, 2 hours and 4 hours after the administration of the substance in the morning.
An apparatus (Ugo Basile, Product reference: 7371, Comerio, Italy) consisted of six individual Plexiglas® boxes (17×11×14 cm) placed upon an elevated glass floor. A rat was placed in the box and left free to habituate for 10 minutes. Then, a mobile infrared radiant source was focused under the non-lesioned and lesioned hindpaws. The paw-withdrawal latencies were automatically recorded. Paw withdrawal interrupts the reflected radiation and switches off the counter and the light source. In order to prevent tissue damage, the test was terminated after 45 seconds if no reaction was noted.
Prior to receiving drug treatment, all animals were submitted to tactile stimulation and assigned to treatment groups, matched on the basis of their pain response. […]

[2] = system: rats with spinal nerve ligature (Chung neuropathic pain model); test: Chung spinal nerve ligation (L5 and L6) neuropathic pain model, tactile stimulation with electronic Von Frey probe (Example 2)
Description: as §1, §2, §3, §4, §5, §6, §7
(§8) For tactile stimulation, the animal was placed under an inverted Plexiglas® box (17×11×14 cm) on a grid floor. The tip of an electronic Von Frey probe (Bioseb, Model 1610, Chaville, France) was applied with increasing pressure to the non-lesioned hindpaw or the lesioned hindpaw. The force required to induce paw withdrawal was automatically recorded. This procedure was carried out three times for each paw, and the mean force per paw was calculated to provide basic scores per animal.
Prior to receiving drug treatment, all animals were submitted to tactile stimulation and assigned to treatment groups, matched on the basis of their pain response. Each treatment group consisted of eight rats. The testing was performed blind. […]

[3] = system: rats with spinal nerve ligature (Chung neuropathic pain model); test: Chung neuropathic pain model, cold allodynia on cold plate (Example 3); conditions: morphine 128 mg/kg p.o.; for change of total number of paw withdrawal responses: cold plate
Description: (§9) The rats used in this experiment were the same rats used in Example 2. The materials and methods for this experiment were identical to those for Example 2 with the following exceptions: there was a 1-week washout between the two experiments, and the rats weighed 290-403 g at the start of this experiment. Prior to receiving drug treatment, all animals were submitted to tactile stimulation and assigned to treatment groups matched on the basis of their pain response. No account was taken of the treatment administered during the first experiment in assigning animals to treatment groups for this experiment.
(§10) All of the substances were administered orally. Morphine, dissolved in distilled water, was administered at 128 mg/kg dose p.o. Rats were tested 30 minutes, 1 hour, 2 hours, and 4 hours after administration of the substances.
Behavioral testing was carried out by measuring cold allodynia using an apparatus consisting of a cold plate maintained at 4±1° C. Rats were individually placed on the cold plate for a period of 5 minutes. The latency to the first paw withdrawal response and the number and total duration of withdrawal responses in 5 minutes were recorded for both the lesioned and the non-lesioned hindpaws.

[4] = system: rats with spinal nerve ligature (Chung neuropathic pain model); test: Chung neuropathic pain model, tactile stimulation, second experiment (Example 3); conditions: acute, morphine 128 mg/kg p.o.; for change of force inducing paw withdrawal vs vehicle: lesioned paw
Experimental: as §8, §9, §10

[5] = hypersensitivity test after 8 days of twice daily administration, morphine

**Q.** Which results are given for `CN1CC[C@]23c4c5ccc(O)c4O[C@H]2[C@@H](O)C=C[C@H]3[C@H]1C5` [Morphine, morphine, reference compound]?
**A.** change of paw-withdrawal latency vs vehicle ([1]; acute, lesioned paw, 30 minutes): +132%; change of paw-withdrawal latency vs vehicle ([1]; acute, lesioned paw, 1 hour): +121%; change of paw-withdrawal latency vs vehicle ([1]; acute, lesioned paw, 4 hours): +204%; change of paw-withdrawal latency vs vehicle ([1]; acute, non-lesioned paw, 30 minutes, p<0.05): +15%; change of paw-withdrawal latency vs vehicle ([1]; chronic, lesioned paw, 30 minutes, p<0.05): +108%; change of paw-withdrawal latency vs vehicle ([1]; chronic, lesioned paw, 1 hour, p<0.05): 93%; change of paw-withdrawal latency vs vehicle ([1]; chronic, non-lesioned paw, 2 hours, p<0.05): −24%; change of paw-withdrawal latency vs vehicle ([1]; chronic, non-lesioned paw, 4 hours, p<0.05): −23%; Paw Withdrawal Latency (s) Lesioned Paw [1, 5]: 11.7 (NS) s; Paw Withdrawal Latency (s) Non-lesioned Paw [1, 5]: 34.5 (NS) s; change of force inducing paw withdrawal vs vehicle ([2]; acute, morphine 16 mg/kg i.p., lesioned paw, 30 minutes): +206%; change of force inducing paw withdrawal vs vehicle ([2]; acute, morphine 16 mg/kg i.p., lesioned paw, 1 hour): +124%; effect on force inducing paw withdrawal ([2]; acute, morphine 16 mg/kg i.p., lesioned paw, 2 hours): tended to increase; effect on force inducing paw withdrawal ([2]; acute, morphine 16 mg/kg i.p., non-lesioned paw): no effects; change of force inducing paw withdrawal vs vehicle ([2]; chronic, day 10, morphine, lesioned paw, 30 minutes, p<0.01): +86%; change of force inducing paw withdrawal vs vehicle ([2]; chronic, day 10, morphine, lesioned paw, 1 hour, p<0.001): +223%; change of force inducing paw withdrawal vs vehicle ([2]; chronic, day 10, morphine, lesioned paw, 2 hours, p=0.09): −50%; effect on force inducing paw withdrawal ([2]; chronic, day 10, morphine, non-lesioned paw): weak, variable effects; Force Inducing Paw Withdrawal (g) Lesioned Paw [2, 5]: 15.1 (NS) g; Force Inducing Paw Withdrawal (g) Non-lesioned Paw [2, 5]: 73.7 (NS) g; effect on force inducing paw withdrawal vs vehicle control ([2]; hypersensitivity test, repeated treatment with morphine, lesioned or non-lesioned paw): no significant effects; effect on paw-withdrawal latency of the first withdrawal ([3]; cold plate 4°C, not statistically significant): tended to increase; change of total number of paw withdrawal responses ([3]; 30 minutes, p<0.001): −61%; change of total number of paw withdrawal responses ([3]; 1 hour, p<0.05): −65%; change of total number of paw withdrawal responses ([3]; 2 hours, p<0.01): −51%; change of total number of paw withdrawal responses ([3]; 4 hours, p<0.01): −56%; change of force inducing paw withdrawal vs vehicle ([4]; 30 minutes, p<0.05): +137%; change of force inducing paw withdrawal vs vehicle ([4]; 1 hour, p<0.01): +198%; change of force inducing paw withdrawal vs vehicle ([4]; 2 hours, p=0.05): +168%; effect on force inducing paw withdrawal ([4]; non-lesioned paw): no effects
